Reference: US10758534B2 (Vertex Pharmaceuticals Incorporated, priority 2014, dated 2020)

Biological target: T1, F508del (Homo sapiens, UniProt P13569, DEL508-508)
T1 construct: expressed in transfected cells
Test: Protocol 1: membrane potential optical assay (FLIPR III, voltage sensing dye), identification of potentiator compounds
Assay type: cell-based
Details: Table 3, compounds of Table 1
How it was run: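 Read-out: change in voltage-sensing dye fluorescence (FLIPR III) as a measure of F508del conductance. Temperature-corrected (27° C, 24 hrs) NIH 3T3 cells expressing F508del are pretreated with potentiators, dye-loaded, then stimulated with forskolin under a chloride ion gradient using chloride-free gluconate bath.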

T1 sequence (P13569 with tags, fused parts or gaps DEL508-508): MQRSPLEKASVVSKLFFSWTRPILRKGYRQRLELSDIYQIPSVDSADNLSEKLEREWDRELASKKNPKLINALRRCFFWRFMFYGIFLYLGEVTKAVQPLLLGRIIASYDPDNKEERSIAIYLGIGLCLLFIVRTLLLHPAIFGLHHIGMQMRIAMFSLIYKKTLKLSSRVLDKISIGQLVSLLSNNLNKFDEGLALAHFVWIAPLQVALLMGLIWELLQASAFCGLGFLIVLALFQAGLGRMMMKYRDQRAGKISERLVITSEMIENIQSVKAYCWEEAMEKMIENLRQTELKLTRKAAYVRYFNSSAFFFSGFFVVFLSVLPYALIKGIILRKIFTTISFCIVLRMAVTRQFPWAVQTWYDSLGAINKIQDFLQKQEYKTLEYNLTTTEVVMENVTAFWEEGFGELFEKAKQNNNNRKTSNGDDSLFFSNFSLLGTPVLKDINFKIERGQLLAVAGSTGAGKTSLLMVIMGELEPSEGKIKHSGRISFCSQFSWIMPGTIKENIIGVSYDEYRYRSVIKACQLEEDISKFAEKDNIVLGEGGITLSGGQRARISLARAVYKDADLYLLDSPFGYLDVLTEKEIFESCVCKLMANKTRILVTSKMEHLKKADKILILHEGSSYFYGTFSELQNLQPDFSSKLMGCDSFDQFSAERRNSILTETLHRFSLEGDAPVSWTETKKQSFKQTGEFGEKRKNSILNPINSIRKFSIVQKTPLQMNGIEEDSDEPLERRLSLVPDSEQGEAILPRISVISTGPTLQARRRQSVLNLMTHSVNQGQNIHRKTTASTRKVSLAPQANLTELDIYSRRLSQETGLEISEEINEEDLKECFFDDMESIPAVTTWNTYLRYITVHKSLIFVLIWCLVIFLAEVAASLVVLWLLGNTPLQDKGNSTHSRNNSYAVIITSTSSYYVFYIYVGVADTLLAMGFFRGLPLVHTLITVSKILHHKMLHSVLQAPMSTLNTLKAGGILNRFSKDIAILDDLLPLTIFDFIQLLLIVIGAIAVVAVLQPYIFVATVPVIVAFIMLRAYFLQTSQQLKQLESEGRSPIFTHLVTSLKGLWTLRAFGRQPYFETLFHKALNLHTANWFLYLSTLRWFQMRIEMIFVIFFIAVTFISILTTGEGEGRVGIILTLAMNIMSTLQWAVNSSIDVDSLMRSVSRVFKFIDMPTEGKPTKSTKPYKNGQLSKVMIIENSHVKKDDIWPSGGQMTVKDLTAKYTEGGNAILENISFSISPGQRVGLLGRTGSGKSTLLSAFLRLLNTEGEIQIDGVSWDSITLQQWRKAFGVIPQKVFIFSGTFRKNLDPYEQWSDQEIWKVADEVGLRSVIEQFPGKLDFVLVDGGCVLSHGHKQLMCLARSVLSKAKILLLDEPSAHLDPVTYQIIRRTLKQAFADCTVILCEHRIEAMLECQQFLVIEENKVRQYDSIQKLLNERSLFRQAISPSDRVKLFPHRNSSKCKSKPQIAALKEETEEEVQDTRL

Row | SMILES | EC30
1 | COc1ccc(/C=C/c2cc(C(=O)NS(=O)(=O)c3cccc(N)n3)c(N3C[C@@H](C)CC3(C)C)nc2C(C)(C)C)cc1 [Compound 1535, N-[(6-amino-2-pyridyl)sulfonyl]-6-tert-butyl-5-[(E)-2-(4-methoxyphenyl)vinyl]-2-[(4S)-2,2,4-trimethylpyrrolidin-1-yl]pyridine-3-carboxamide] | +++ (“+++” means <3 uM)
2 | COc1ccc(C(=O)NS(=O)(=O)c2cccc(N)n2)c(N2C[C@@H](C)CC2(C)C)n1 [Compound 1536, N-[(6-amino-2-pyridyl)sulfonyl]-6-methoxy-2-[(4S)-2,2,4-trimethylpyrrolidin-1-yl]pyridine-3-carboxamide] | ++ (“++” means between 3 uM and 10 uM)
3 | Cc1nc(OCC(C)C)ccc1-c1ccc(C(=O)NS(=O)(=O)c2cccc(N)n2)c(N2[C@H](C)CC[C@@H]2C)n1 [Compound 1537, N-[(6-amino-2-pyridyl)sulfonyl]-2-[(2R,5S)-2,5-dimethylpyrrolidin-1-yl]-6-(6-isobutoxy-2-methyl-3-pyridyl)pyridine-3-carboxamide] | +++ (“+++” means <3 uM)
4 | C[C@@H]1CN(c2nc(-c3cc(O)cc(F)c3)ccc2C(=O)NS(=O)(=O)c2ccccc2)C(C)(C)C1 [Compound 1538, N-(benzenesulfonyl)-6-(3-fluoro-5-hydroxy-phenyl)-2-[(4S)-2,2,4-trimethylpyrrolidin-1-yl]pyridine-3-carboxamide] | + (“+” means greater than 10 uM)
5 | CCOc1cccc2c1CN(Cc1c(C)cc(C)cc1C)C2(C)C(=O)NS(=O)(=O)c1ccccc1 (stereo not drawn) [Compound 1539, N-(benzenesulfonyl)-4-ethoxy-1-methyl-2-[(2,4,6-trimethylphenyl)methyl]isoindoline-1-carboxamide] | +++ (“+++” means <3 uM)
6 | Cc1cc(C)c(Oc2nc(C3=CCN(C(=O)C(C)C)CC3)ccc2C(=O)NS(=O)(=O)c2cccc(N)n2)c(C)c1 [Compound 1540, N-[(6-amino-2-pyridyl)sulfonyl]-6-[1-(2-methylpropanoyl)-3,6-dihydro-2H-pyridin-4-yl]-2-(2,4,6-trimethylphenoxy)pyridine-3-carboxamide] | + (“+” means greater than 10 uM)
7 | CCOc1cccc2c1CN(Cc1c(C)cc(C)cc1C)[C@]2(C)C(=O)NS(=O)(=O)c1ccc[nH]c1=O [Compound 1541, (1S)-4-ethoxy-1-methyl-N-[(2-oxo-1H-pyridin-3-yl)sulfonyl]-2-[(2,4,6-trimethylphenyl)methyl]isoindoline-1-carboxamide] | +++ (“+++” means <3 uM)
8 | CCOc1cccc2c1CN(Cc1c(C)cc(C)cc1C)C2(C)C(=O)NS(=O)(=O)c1cscn1 (stereo not drawn) [Compound 1542, 4-ethoxy-1-methyl-N-thiazol-4-ylsulfonyl-2-[(2,4,6-trimethylphenyl)methyl]isoindoline-1-carboxamide] | +++ (“+++” means <3 uM)
9 | CC1CN(c2ncc(C3=CC4CCC3(C)C4(C)C)cc2C(=O)NS(=O)(=O)c2cccc(N)n2)C(C)(C)C1 (stereo not drawn) [Compound 1544, N-[(6-amino-2-pyridyl)sulfonyl]-5-(4,7,7-trimethyl-3-bicyclo[2.2.1]hept-2-enyl)-2-(2,2,4-trimethylpyrrolidin-1-yl)pyridine-3-carboxamide] | +++ (“+++” means <3 uM)
10 | COC1CCCN(S(=O)(=O)NC(=O)c2ccc(-c3cc(F)cc(OCC(C)C)c3)nc2N2C[C@@H](C)CC2(C)C)C1 (stereo partly drawn) [Compound 1545, 6-(3-fluoro-5-isobutoxy-phenyl)-N-[(3-methoxy-1-piperidyl)sulfonyl]-2-[(4S)-2,2,4-trimethylpyrrolidin-1-yl]pyridine-3-carboxamide] | +++ (“+++” means <3 uM)
11 | CCOc1cccc2c1CN(Cc1c(C)cc(C)cc1C)C2(C)C(=O)NS(=O)(=O)c1nccs1 (stereo not drawn) [Compound 1546, 4-ethoxy-1-methyl-N-thiazol-2-ylsulfonyl-2-[(2,4,6-trimethylphenyl)methyl]isoindoline-1-carboxamide] | +++ (“+++” means <3 uM)
12 | C[C@@H]1CN(c2nc(C(C)(C)C)c(/C=C/C(=O)O)cc2C(=O)NS(=O)(=O)c2cccc(N)n2)C(C)(C)C1 [Compound 1547, (E)-3-[5-[(6-amino-2-pyridyl)sulfonylcarbamoyl]-2-tert-butyl-6-[(4S)-2,2,4-trimethylpyrrolidin-1-yl]-3-pyridyl]prop-2-enoic acid] | ++ (“++” means between 3 uM and 10 uM)
13 | CC(C)COc1cc(F)cc(-c2ccc(C(=O)NS(=O)(=O)c3cccc(N)n3)c(N3CC(C)OCC3(C)C)n2)c1 (stereo not drawn) [Compound 1548, N-[(6-amino-2-pyridyl)sulfonyl]-6-(3-fluoro-5-isobutoxy-phenyl)-2-(2,5,5-trimethylmorpholin-4-yl)pyridine-3-carboxamide] | +++ (“+++” means <3 uM)
14 | Cc1cc(C)c(Oc2cc(-c3cc(F)cc(OCC(C)C)c3)ccc2C(=O)NS(=O)(=O)c2cccc(N)n2)c(C)c1 [Compound 1549, N-[(6-amino-2-pyridyl)sulfonyl]-4-(3-fluoro-5-isobutoxy-phenyl)-2-(2,4,6-trimethylphenoxy)benzamide] | +++ (“+++” means <3 uM)
15 | C[C@@H]1CN(c2ncc(C(F)(F)F)cc2C(=O)NS(=O)(=O)c2cccc(N)n2)C(C)(C)C1 [Compound 1550, N-[(6-amino-2-pyridyl)sulfonyl]-5-(trifluoromethyl)-2-[(4S)-2,2,4-trimethylpyrrolidin-1-yl]pyridine-3-carboxamide] | ++ (“++” means between 3 uM and 10 uM)
16 | COc1ccccc1S(=O)(=O)NC(=O)c1cc(C(C)(C)C)nn1Cc1c(C)cccc1C [Compound 1551, 5-tert-butyl-2-[(2,6-dimethylphenyl)methyl]-N-(2-methoxyphenyl)sulfonyl-pyrazole-3-carboxamide] | +++ (“+++” means <3 uM)
17 | CC(C)COc1cc(F)cc(-c2ccc(C(=O)NS(=O)(=O)c3cccc(N)n3)c(C3CC(C)(C)CC3(C)C)n2)c1 (stereo not drawn) [Compound 1552] | +++ (“+++” means <3 uM)
18 | Cc1cc(C)c(Oc2nc(N3CCCC3C)ccc2C(=O)NS(=O)(=O)c2cccc(N)n2)c(C)c1 (stereo not drawn) [Compound 1553, N-[(6-amino-2-pyridyl)sulfonyl]-6-(2-methylpyrrolidin-1-yl)-2-(2,4,6-trimethylphenoxy)pyridine-3-carboxamide] | +++ (“+++” means <3 uM)
19 | CNC1CCN(S(=O)(=O)NC(=O)c2ccc(-c3cc(F)cc(OCC(C)C)c3)nc2N2CC(C)CC2(C)C)C1 (stereo not drawn) [Compound 1554, 6-(3-fluoro-5-isobutoxy-phenyl)-N—[3-(methylamino)pyrrolidin-1-yl]sulfonyl-2-(2,2,4-trimethylpyrrolidin-1-yl)pyridine-3-carboxamide] | +++ (“+++” means <3 uM)
20 | CCOc1cccc2c1CN(Cc1c(C)cc(C)cc1C)C2(C)C(=O)NS(=O)(=O)c1cnc(NC(C)=O)s1 (stereo not drawn) [Compound 1555, N-(2-acetamidothiazol-5-yl)sulfonyl-4-ethoxy-1-methyl-2-[(2,4,6-trimethylphenyl)methyl]isoindoline-1-carboxamide] | +++ (“+++” means <3 uM)
21 | C[C@@H]1CN(c2nc(C(F)(F)F)ccc2C(=O)NS(=O)(=O)c2cccc(N)n2)C(C)(C)C1 [Compound 1556, N-[(6-amino-2-pyridyl)sulfonyl]-6-(trifluoromethyl)-2-[(4S)-2,2,4-trimethylpyrrolidin-1-yl]pyridine-3-carboxamide] | +++ (“+++” means <3 uM)
